In patent US8337851B2, “Methods of monitoring the efficacy of anti-CD40 antibodies in treating a subject for a CD40-expressing cancer” (Novartis AG, priority 2005, dated 2012):

How the values were obtained:
[1] = system: B-CLL cells from patients; assay: Western blot of CD40L-mediated signaling (p-IKK α/β, p-ERK, p-Akt, p-p38) in B-CLL cells; format: cell-based, human; conditions: 10 μg/ml
Description: In these experiments, 1.0×10^6 B-CLL cells from patients were stimulated with 1 μg/ml sCD40L (Alexis Corporation, Bingham, Nottinghamshire, UK). […] Cells were collected at 0 and 20 minutes. Phosphorylated IKKα (Ser180) and IKK β (Ser 181) (p-IKK α/β; NFkB pathway), phosphorylated ERK (p-ERK), phosphorylated Akt (p-Akt), and phosphorylated p38 MAPK (p-p38) were detected in cell lysates by Western blot.

[2] = system: B-CLL cells from patients; assay: Flow cytometry of cleaved PARP and TUNEL in B-CLL cells; format: cell-based, human; conditions: 10 μg/ml with 1 μg/ml sCD40L, 24 hours
Description: In this experiment, 0.4×10^6B-CLL cells from patients were stimulated with 1 μg/ml sCD40L (Alexis Corp., Bingham, Nottinghamshire, UK). CHIR12.12 (10 μg/ml) or control IgG was then added. […] After fixation and permeabilization, the cells were stained for cleaved PARP and TUNEL methods.

B-CLL cells [3] = assay: p38 MAPK signaling and survival in B-CLL cells, 24-hour experiment; format: cell-based, human
Description: In the 24-hour experiment, approximately 0.8×10^6 B-CLL cells per well were placed in full serum (10% FBS)-containing media for 24 hours. […] Western blot analysis with antibodies against specific proteins shown was conducted, and equal loading was evaluated by probing with antibodies against β-actin.

[4] = system: IM-9 tumor cells (a human multiple myeloma cell line); assay: Unstaged orthotopic IM-9 xenograft conditional survival model; format: in vivo, SCID mice; conditions: 0.1, 1 or 10 mg/kg i.p. once a week from one day after implantation
normal B cells = assay: CD40L-induced cytokine secretion from normal B cells (Meso Scale Discovery); format: cell-based, human; conditions: 10 μg/ml, 24 hours
Description: Cells (1×10^5 cells per well) were cultured in a 96-well plate in the presence or absence of CD40L (CD40 transfected, formaldehyde fixed CHO cells, 2×10^5 per well). […] Production of hIL-6, hIL-8, hIL-10, hTNF-α, hGM-CSF, hIL-1b, hIL-12p70, MCP-1, and MIP-1β was measured by Meso Scale Discovery® multi-array system (Meso Scale Discovery, Gaithersburg, Md.).

B-CLL cells [5] = assay: CellTiter-Glo viability of CLL patient PBMCs; format: cell-based, human; conditions: 72 hours, 10 μg/ml
Description: Cell viability was determined after 72 hours using the CellTiter-Glo® Luminescent Cell Viability Kit (Promega, Madison, Wis.), which measures cellular ATP, and expressed as Relative Luminescence Units (RLU). Percent blockade was calculated as follows: […]

Substance: CHIR-12.12: fully human anti-CD40 monoclonal antibody of the IgG1 isotype from hybridoma cell line 153.8E2.D10.D6.12.12 (ATCC PTA-5543)
- phosphorylation of IKK α/β, ERK and Akt ([1]; 20 minutes, 1 μg/ml sCD40L, vs control IgG): significant inhibition of phosphorylation of IKK α/β, ERK, and Akt
- p38 MAPK activation ([1]; samples with constitutively activated p38 MAPK): did not significantly inhibit p38 MAPK activation
- percentage of cells positive for cleaved PARP or TUNEL [2]: the percentage of positive cells for cleaved PARP or TUNEL returned to the levels seen without sCD40L stimulation
- CD40 expression (B-CLL cells [3]): inhibited
- cleaved Caspase-3 (B-CLL cells [3]; CD40L): induced to a lesser extent
- p38 phosphorylation (B-CLL cells [3]; CD40L): similarly blocked
- cleaved-PARP (B-CLL cells [3]; SB203580 30 and 60 μM, CHIR-12.12 10 μg/mL, CD40L): significantly induced
- Bcl-xl expression (B-CLL cells [3]; especially 60 μM SB203580 and 10 μg/ml CHIR-12.12): blocked
- survival of tumor-bearing mice [4]: prolonged the survival of tumor-bearing mice
- cytokine production with antibody alone (agonistic activity) (normal B cells; absence of CD40L): did not produce any of the cytokines above background levels
- inhibition of CD40L-induced MCP-1 secretion (normal B cells; Donor 1): 55.3 % inhibition
- inhibition of CD40L-induced MIP-1β secretion (normal B cells; Donor 1): 54.4 % inhibition
- inhibition of CD40L-induced hIL-6 secretion (normal B cells; Donor 1): 92.2 % inhibition
- inhibition of CD40L-induced hIL-8 secretion (normal B cells; Donor 1): 98.2 % inhibition
- inhibition of CD40L-induced hIL-10 secretion (normal B cells; Donor 1): 90.5 % inhibition
- inhibition of CD40L-induced hTNF-α secretion (normal B cells; Donor 1): 92.8 % inhibition
- inhibition of CD40L-induced MIP-1β secretion (normal B cells; Donor 2): 92 % inhibition
- inhibition of CD40L-induced hIL-6 secretion (normal B cells; Donor 2): 99.9 % inhibition
- inhibition of CD40L-induced hIL-8 secretion (normal B cells; Donor 2): 84.7 % inhibition
- inhibition of CD40L-induced hTNF-α secretion (normal B cells; Donor 2): 97.4 % inhibition
- inhibition of CD40L-induced MCP-1 secretion (normal B cells; Donor 3): 25.7 % inhibition
- inhibition of CD40L-induced MIP-1β secretion (normal B cells; Donor 3): 92.5 % inhibition
- inhibition of CD40L-induced hIL-6 secretion (normal B cells; Donor 3): 99.3 % inhibition
- inhibition of CD40L-induced hIL-8 secretion (normal B cells; Donor 3): 99.5 % inhibition
- inhibition of CD40L-induced hIL-10 secretion (normal B cells; Donor 3): 94.4 % inhibition
- inhibition of CD40L-induced hTNF-α secretion (normal B cells; Donor 3): 98.5 % inhibition
- blockade of CD40L-promoted survival (B-CLL cells [5]): in each case, these effects were blocked
